What was measured:
Test in all cases: relative viability (nuclei count vs DMSO), 5 days (fraction); higher = more cells survive
Erlotinib + Bortezomib = compound: C#Cc1cccc(Nc2ncnc3cc(OCCOC)c(OCCOC)cc23)c1 [Erlotinib] + CC(C)C[C@H](NC(=O)[C@H](Cc1ccccc1)NC(=O)c1cnccn1)B(O)O [Bortezomib] (partner 0.002 µM)
In short: (§1)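 Lung cancer cell lines in 1536-well plates were dosed by pin tool the day after seeding, either with one drug alone or with a fixed anchor-drug dose plus five library-drug doses (not always all listed) in √10 steps. After 5 days, cells were fixed and their nuclei stained in one step (final 0.05% Triton X-100, 1% formaldehyde, 1 ug/ml Hoechst), then counted on 4× images. Relative viability is the nuclei count in treated wells divided by that in vehicle wells. Values are medians of duplicate plates.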

Erlotinib + Dasatinib = compound: C#Cc1cccc(Nc2ncnc3cc(OCCOC)c(OCCOC)cc23)c1 [Erlotinib] + Cc1nc(Nc2ncc(C(=O)Nc3c(C)cccc3Cl)s2)cc(N2CCN(CCO)CC2)n1 [Dasatinib] (partner 0.075 µM)
In short: as §1

AT9283 + AZD7762 = compound: O=C(Nc1c[nH]nc1-c1nc2ccc(CN3CCOCC3)cc2[nH]1)NC1CC1 [AT9283] + NC(=O)Nc1cc(-c2cccc(F)c2)sc1C(=O)N[C@H]1CCCNC1 [AZD7762] (partner 0.2 µM)
In short: as §1

AT9283 + Vorinostat = compound: O=C(Nc1c[nH]nc1-c1nc2ccc(CN3CCOCC3)cc2[nH]1)NC1CC1 [AT9283] + O=C(CCCCCCC(=O)Nc1ccccc1)NO [Vorinostat] (partner 1 µM)
In short: as §1

AT9283 + Olaparib = compound: O=C(Nc1c[nH]nc1-c1nc2ccc(CN3CCOCC3)cc2[nH]1)NC1CC1 [AT9283] + O=C(c1cc(Cc2n[nH]c(=O)c3ccccc23)ccc1F)N1CCN(C(=O)C2CC2)CC1 [Olaparib] (partner 8 µM)
In short: as §1

Cell Line: NCI-H441
- relative viability (Erlotinib + Bortezomib; first compound 0.02 µM): 0.724
- relative viability (Erlotinib + Bortezomib; first compound 0.2 µM): 0.471
- relative viability (Erlotinib + Bortezomib; first compound 0.6325 µM): 0.383
- relative viability (Erlotinib + Bortezomib; first compound 2 µM): 0.219
- relative viability (Erlotinib + Dasatinib; first compound 0.02 µM): 0.651
- relative viability (Erlotinib + Dasatinib; first compound 0.2 µM): 0.554
- relative viability (Erlotinib + Dasatinib; first compound 0.6325 µM): 0.508
- relative viability (Erlotinib + Dasatinib; first compound 2 µM): 0.61
- relative viability (AT9283 + AZD7762; first compound 0.003 µM): 1.06
- relative viability (AT9283 + AZD7762; first compound 0.03 µM): 1.1
- relative viability (AT9283 + AZD7762; first compound 0.09487 µM): 0.894
- relative viability (AT9283 + AZD7762; first compound 0.3 µM): 0.633
- relative viability (AT9283 + Vorinostat; first compound 0.003 µM): 0.698
- relative viability (AT9283 + Vorinostat; first compound 0.03 µM): 0.499
- relative viability (AT9283 + Vorinostat; first compound 0.09487 µM): 0.669
- relative viability (AT9283 + Vorinostat; first compound 0.3 µM): 0.307
- relative viability (AT9283 + Olaparib; first compound 0.003 µM): 0.557
- relative viability (AT9283 + Olaparib; first compound 0.03 µM): 0.504
- relative viability (AT9283 + Olaparib; first compound 0.09487 µM): 0.417
- relative viability (AT9283 + Olaparib; first compound 0.3 µM): 0.319

Source: the supplement of paper PMC10307832
